Measurements as given in patent US10765114B2, “4-amino-6-(pyridyl and 2-substitutedphenyl)-picolinates and 6-amino-2-(pyridyl and 2-substitutedphenyl)-pyrimidine-4-carboxylates and their use as herbicides” (Dow AgroSciences LLC, priority 2013, dated 2020).

Columns and labels:
Experiment in all cases: Post-Emergent Test III (Wheat and Barley)
[1] = tested on: POLCO (wild buckwheat); format: in vivo, Polygonum convolvulus; details: for Visual Growth Reduction (%) 21 Days After Application, POLCO: POLCO wild buckwheat (Polygonum convolvulus), post-emergent; for GR50, POLCO: growth reduction of 50%; for GR50, POLCO / GR80, POLCO / GR90, POLCO: probit analysis, 21 days; for GR80, POLCO: growth reduction of 80%; for GR90, POLCO: growth reduction of 90%
Protocol: (§1) Seeds of the desired test plant species were planted in Sun Gro MetroMix® 306 planting mixture, which typically has a pH of 6.0 to 6.8 and an organic matter content of about 30 percent, in plastic pots with a surface area of 103.2 square centimeters (cm^2). When required to ensure good germination and healthy plants, a fungicide treatment and/or other chemical or physical treatment was applied. The plants were grown for 7-36 days in a greenhouse with an approximate 14 h photoperiod which was maintained at about 18° C. during the day and 17° C. during the night. Nutrients and water were added on a regular basis and supplemental lighting was provided with overhead metal halide 1000-Watt lamps as necessary. The plants were employed for testing when they reached the second or third true leaf stage.
(§2) A weighed amount, determined by the highest rate to be tested, of each test compound was placed in a 25 mL glass vial and was dissolved in 4 mL of a 97:3 v/v mixture of acetone and DMSO to obtain concentrated stock solutions. […] The concentrated stock solutions obtained were diluted with 20 mL of an aqueous mixture containing acetone, water, isopropyl alcohol, DMSO, Agri-Dex crop oil concentrate, and X-77 surfactant in a 48:39:10:1.5:1.5:0.02 v/v ratio to obtain spray solutions containing the highest application rates. Additional application rates were obtained by serial dilution of 12 mL of the high rate solution into a solution containing 2 mL of 97:3 v/v mixture of acetone and DMSO and 10 mL of an aqueous mixture containing acetone, water, isopropyl alcohol, DMSO, Agri-Dex crop oil concentrate, and X-77 surfactant in a 48:39:10:1.5:1.5:0.02 v/v ratio to obtain ½×, ¼×, ⅛× and 1/16× rates of the high rate. Compound requirements are based upon a 12 mL application volume at a rate of 187 liters per hectare (L/ha). Formulated compounds were applied to the plant material with an overhead Mandel track sprayer equipped with 8002E nozzles calibrated to deliver 187 L/ha over an application area of 0.503 square meters at a spray height of 18 inches (43 cm) above the average plant canopy height. Control plants were sprayed in the same manner with the solvent blank.
(§3) The treated plants and control plants were placed in a greenhouse as described above and watered by subirrigation to prevent wash-off of the test compounds. After 21 dAYS, the condition of the test plants as compared with that of the untreated plants was determined visually and scored on a scale of 0 to 100 percent where 0 corresponds to no injury and 100 corresponds to complete kill and presented as indicated in Table A.
(§4) By applying the well-accepted probit analysis as described by J. Berkson in Journal of the American Statistical Society, 48, 565 (1953) and by D. Finney in “Probit Analysis” Cambridge University Press (1952), herbicidal injury of a specific compound at various rates can be used to calculate GR10, GR20, GR50, GR80 and GR90 values, which are defined as growth reduction factors that correspond to the effective dose of herbicide required to provide plant growth reduction (GR) of 10 percent, 20 percent, 50 percent, 80 percent and 90 percent, respectively. Probit analysis was applied to data collected from multiple dose rates of individual compounds utilizing the procedures explained in the following examples. The analysis of those dose rates is captured in the following tables.

[2] = tested on: KCHSC (kochia); format: in vivo, Kochia scoparia; details: for pest or weed control at 17.5 g/ha / pest or weed control at 35 g/ha / pest or weed control at 70 g/ha: Bassia scoparia, post-emergence, 504 h, KCHSC kochia (Kochia scoparia), post-emergent, read-out: Visual Growth Reduction (%) 21 Days After Application, KCHSC; for pest or weed control at 17.5 g/ha: 17.5 g ai/ha; for pest or weed control at 35 g/ha: 35 g ai/ha; for pest or weed control at 70 g/ha: 70 g ai/ha; for GR50, KCHSC: growth reduction of 50%; for GR50, KCHSC / GR80, KCHSC / GR90, KCHSC: probit analysis, 21 days; for GR80, KCHSC: growth reduction of 80%; for GR90, KCHSC: growth reduction of 90%
In short: (§5)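 GR10-GR90 values were derived by probit analysis of visual injury (0 = no injury, 100 = complete kill versus untreated), rated 21 days after spraying. Two- to three-true-leaf plants were sprayed at 187 L/ha with serial rates (1× to 1/16×) in aqueous acetone/isopropanol/DMSO with crop oil and X-77. Greenhouse conditions were 18 °C day/17 °C night.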

[3] = tested on: HORSS; format: in vivo; details: crop; for Visual Growth Reduction (%) 21 Days After Application, HORSS: HORSS barley (Hordeum vulgare), post-emergent; for GR10, HORSS / GR20, HORSS: HORSS barley, probit analysis, 21 days; for GR10, HORSS: growth reduction of 10%; for GR20, HORSS: growth reduction of 20%
In short: as §5

[4] = tested on: BRSSS; format: in vivo; details: for Visual Growth Reduction (%) 21 Days After Application, BRSSS: BRSSS oil seed rape (Brassica napus), post-emergent; for GR50, BRSSS: growth reduction of 50%; for GR50, BRSSS / GR80, BRSSS / GR90, BRSSS: probit analysis, 21 days; for GR80, BRSSS: growth reduction of 80%; for GR90, BRSSS: growth reduction of 90%
In short: as §5

[5] = tested on: TRZSS; format: in vivo; details: crop; for Visual Growth Reduction (%) 21 Days After Application, TRZSS: TRZSS wheat (Triticum aestivum), post-emergent; for GR10, TRZSS / GR20, TRZSS: TRZSS wheat, probit analysis, 21 days; for GR10, TRZSS: growth reduction of 10%; for GR20, TRZSS: growth reduction of 20%
In short: as §5

[6] = tested on: LAMPU (purple deadnettle); format: in vivo, Lamium purpureum; details: for Visual Growth Reduction (%) 21 Days After Application, LAMPU: LAMPU purple deadnettle (Lamium purpureum), post-emergent; for GR50, LAMPU: growth reduction of 50%; for GR50, LAMPU / GR80, LAMPU / GR90, LAMPU: probit analysis, 21 days; for GR80, LAMPU: growth reduction of 80%; for GR90, LAMPU: growth reduction of 90%
Protocol: as §1, §2, §3, §4

Structure (SMILES): COC(=O)c1nc(-c2ccc(Br)nc2)c(F)c(N)c1Cl [Compound 22, methyl 4-amino-6′-bromo-5-chloro-3-fluoro-[2,3′-bipyridine]-6-carboxylate]
- Visual Growth Reduction (%) 21 Days After Application, POLCO ([1]; 17.5 g ai/ha): E (45-59)
- Visual Growth Reduction (%) 21 Days After Application, POLCO ([1]; 35 g ai/ha): E (45-59)
- Visual Growth Reduction (%) 21 Days After Application, POLCO ([1]; 70 g ai/ha): D (60-74)
- GR50, POLCO [1]: 26 g ai/ha
- GR80, POLCO [1]: >140 g ai/ha
- GR90, POLCO [1]: >140 g ai/ha
- pest or weed control at 17.5 g/ha [2]: 95 to 100%
- pest or weed control at 35 g/ha [2]: 95 to 100%
- pest or weed control at 70 g/ha [2]: 95 to 100%
- GR50, KCHSC [2]: 3 g ai/ha
- GR80, KCHSC [2]: 8 g ai/ha
- GR90, KCHSC [2]: 14 g ai/ha
- Visual Growth Reduction (%) 21 Days After Application, HORSS ([3]; 17.5 g ai/ha): B (85-94)
- Visual Growth Reduction (%) 21 Days After Application, HORSS ([3]; 35 g ai/ha): B (85-94)
- Visual Growth Reduction (%) 21 Days After Application, HORSS ([3]; 70 g ai/ha): A (95-100)
- GR10, HORSS [3]: 1 g ai/ha
- GR20, HORSS [3]: 1 g ai/ha
- Visual Growth Reduction (%) 21 Days After Application, BRSSS ([4]; 17.5 g ai/ha): D (60-74)
- Visual Growth Reduction (%) 21 Days After Application, BRSSS ([4]; 35 g ai/ha): B (85-94)
- Visual Growth Reduction (%) 21 Days After Application, BRSSS ([4]; 70 g ai/ha): B (85-94)
- GR50, BRSSS [4]: 4 g ai/ha
- GR80, BRSSS [4]: 20 g ai/ha
- GR90, BRSSS [4]: 46 g ai/ha
- Visual Growth Reduction (%) 21 Days After Application, TRZSS ([5]; 17.5 g ai/ha): C (75-84)
- Visual Growth Reduction (%) 21 Days After Application, TRZSS ([5]; 35 g ai/ha): B (85-94)
- Visual Growth Reduction (%) 21 Days After Application, TRZSS ([5]; 70 g ai/ha): B (85-94)
- GR10, TRZSS [5]: 1 g ai/ha
- GR20, TRZSS [5]: 1 g ai/ha
- Visual Growth Reduction (%) 21 Days After Application, LAMPU ([6]; 17.5 g ai/ha): A (95-100)
- Visual Growth Reduction (%) 21 Days After Application, LAMPU ([6]; 35 g ai/ha): A (95-100)
- Visual Growth Reduction (%) 21 Days After Application, LAMPU ([6]; 70 g ai/ha): A (95-100)
- GR50, LAMPU [6]: 1 g ai/ha
- GR80, LAMPU [6]: 6 g ai/ha
- GR90, LAMPU [6]: 11 g ai/ha

Structure (SMILES): Cc1c(-c2cc(N)c(Cl)c(C(=O)O)n2)ccc(Cl)c1Cl [Compound 28]
- Visual Growth Reduction (%) 21 Days After Application, POLCO ([1]; 17.5 g ai/ha): A (95-100)
- Visual Growth Reduction (%) 21 Days After Application, POLCO ([1]; 35 g ai/ha): A (95-100)
- Visual Growth Reduction (%) 21 Days After Application, POLCO ([1]; 70 g ai/ha): A (95-100)
- GR50, POLCO [1]: 1 g ai/ha
- GR80, POLCO [1]: 1 g ai/ha
- GR90, POLCO [1]: 4 g ai/ha
- pest or weed control at 17.5 g/ha [2]: 75 to 84%
- pest or weed control at 35 g/ha [2]: 75 to 84%
- pest or weed control at 70 g/ha [2]: 95 to 100%
- GR50, KCHSC [2]: 3 g ai/ha
- GR80, KCHSC [2]: 21 g ai/ha
- GR90, KCHSC [2]: 54 g ai/ha
- Visual Growth Reduction (%) 21 Days After Application, HORSS ([3]; 17.5 g ai/ha): G (0-29)
- Visual Growth Reduction (%) 21 Days After Application, HORSS ([3]; 35 g ai/ha): F (30-44)
- Visual Growth Reduction (%) 21 Days After Application, HORSS ([3]; 70 g ai/ha): F (30-44)
- GR10, HORSS [3]: 3 g ai/ha
- GR20, HORSS [3]: 13 g ai/ha
- Visual Growth Reduction (%) 21 Days After Application, BRSSS ([4]; 17.5 g ai/ha): B (85-94)
- Visual Growth Reduction (%) 21 Days After Application, BRSSS ([4]; 35 g ai/ha): B (85-94)
- Visual Growth Reduction (%) 21 Days After Application, BRSSS ([4]; 70 g ai/ha): A (95-100)
- GR50, BRSSS [4]: 1 g ai/ha
- GR80, BRSSS [4]: 5 g ai/ha
- GR90, BRSSS [4]: 18 g ai/ha
- Visual Growth Reduction (%) 21 Days After Application, TRZSS ([5]; 17.5 g ai/ha): G (0-29)
- Visual Growth Reduction (%) 21 Days After Application, TRZSS ([5]; 35 g ai/ha): F (30-44)
- Visual Growth Reduction (%) 21 Days After Application, TRZSS ([5]; 70 g ai/ha): E (45-59)
- GR10, TRZSS [5]: 16 g ai/ha
- GR20, TRZSS [5]: 25 g ai/ha
- Visual Growth Reduction (%) 21 Days After Application, LAMPU ([6]; 17.5 g ai/ha): A (95-100)
- Visual Growth Reduction (%) 21 Days After Application, LAMPU ([6]; 35 g ai/ha): A (95-100)
- Visual Growth Reduction (%) 21 Days After Application, LAMPU ([6]; 70 g ai/ha): A (95-100)
- GR50, LAMPU [6]: 1 g ai/ha
- GR80, LAMPU [6]: 1 g ai/ha
- GR90, LAMPU [6]: 1 g ai/ha
